Activity calls are given as the source filed them.
What was measured:
[1] = biological target: T1, Estrogen receptor (Homo sapiens, UniProt P03372);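 also: potency for inhibiting coactivator peptide recruitment to the receptor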
T1 sequence (P03372 whole entry): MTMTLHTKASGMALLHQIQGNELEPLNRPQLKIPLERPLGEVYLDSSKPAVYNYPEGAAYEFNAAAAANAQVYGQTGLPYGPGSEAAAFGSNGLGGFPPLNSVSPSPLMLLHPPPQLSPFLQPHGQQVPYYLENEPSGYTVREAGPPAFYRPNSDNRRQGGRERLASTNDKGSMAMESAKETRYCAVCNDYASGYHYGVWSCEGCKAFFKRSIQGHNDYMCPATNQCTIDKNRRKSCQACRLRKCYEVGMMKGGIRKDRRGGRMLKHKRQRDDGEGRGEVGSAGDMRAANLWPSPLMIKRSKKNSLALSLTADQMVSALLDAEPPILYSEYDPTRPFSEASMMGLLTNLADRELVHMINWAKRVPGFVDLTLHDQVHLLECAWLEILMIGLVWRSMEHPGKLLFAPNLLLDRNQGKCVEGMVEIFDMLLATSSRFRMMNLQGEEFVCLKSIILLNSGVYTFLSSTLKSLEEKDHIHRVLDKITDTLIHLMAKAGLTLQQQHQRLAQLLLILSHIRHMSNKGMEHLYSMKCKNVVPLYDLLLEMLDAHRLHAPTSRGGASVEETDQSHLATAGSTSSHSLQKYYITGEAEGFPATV

[2] = biological target: T2, Estrogen receptor beta (Homo sapiens, UniProt Q92731);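 also: recombinant ER-beta bound to coactivator SRC1 peptide in presence of estradiol agonist; inhibitors block coactivator peptide binding and lower the FRET signal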
T2 sequence (Q92731 whole entry): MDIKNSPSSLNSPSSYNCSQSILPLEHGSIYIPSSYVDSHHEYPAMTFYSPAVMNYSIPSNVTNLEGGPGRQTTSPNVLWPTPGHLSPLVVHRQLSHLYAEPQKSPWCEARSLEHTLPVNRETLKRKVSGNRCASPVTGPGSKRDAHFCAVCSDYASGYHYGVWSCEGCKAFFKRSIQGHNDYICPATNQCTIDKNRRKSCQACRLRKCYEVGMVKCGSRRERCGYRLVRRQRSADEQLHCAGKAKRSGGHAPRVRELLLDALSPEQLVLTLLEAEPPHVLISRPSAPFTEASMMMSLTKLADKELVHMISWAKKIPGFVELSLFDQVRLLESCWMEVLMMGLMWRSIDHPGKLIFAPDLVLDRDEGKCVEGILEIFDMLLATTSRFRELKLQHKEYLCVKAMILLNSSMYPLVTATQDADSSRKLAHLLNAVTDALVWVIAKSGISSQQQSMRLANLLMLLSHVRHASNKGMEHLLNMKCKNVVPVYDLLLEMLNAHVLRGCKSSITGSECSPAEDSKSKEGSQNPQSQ

[3] = test system: HEK293; assay: cells; type: functional, cell-based; settings: Homo sapiens
[4] = test system: HEK293; assay: cells; type: functional, cell-based; settings: Homo sapiens; remark: listed apart in the source
[5] = test system: HEK293; assay: cells; type: functional, cell-based; settings: Homo sapiens; remark: listed apart in the source
[6] = biological target: Nucleotide-binding oligomerization domain-containing protein 2 (Homo sapiens, UniProt Q9HC29); assay: inhibition of NOD2-driven NF-kB reporter – cell-based, luminescence, uHTS, HEK293 (AID 1566); type: functional
Chain of Nucleotide-binding oligomerization domain-containing protein 2 (Q9HC29 whole entry, the tested form may be a part): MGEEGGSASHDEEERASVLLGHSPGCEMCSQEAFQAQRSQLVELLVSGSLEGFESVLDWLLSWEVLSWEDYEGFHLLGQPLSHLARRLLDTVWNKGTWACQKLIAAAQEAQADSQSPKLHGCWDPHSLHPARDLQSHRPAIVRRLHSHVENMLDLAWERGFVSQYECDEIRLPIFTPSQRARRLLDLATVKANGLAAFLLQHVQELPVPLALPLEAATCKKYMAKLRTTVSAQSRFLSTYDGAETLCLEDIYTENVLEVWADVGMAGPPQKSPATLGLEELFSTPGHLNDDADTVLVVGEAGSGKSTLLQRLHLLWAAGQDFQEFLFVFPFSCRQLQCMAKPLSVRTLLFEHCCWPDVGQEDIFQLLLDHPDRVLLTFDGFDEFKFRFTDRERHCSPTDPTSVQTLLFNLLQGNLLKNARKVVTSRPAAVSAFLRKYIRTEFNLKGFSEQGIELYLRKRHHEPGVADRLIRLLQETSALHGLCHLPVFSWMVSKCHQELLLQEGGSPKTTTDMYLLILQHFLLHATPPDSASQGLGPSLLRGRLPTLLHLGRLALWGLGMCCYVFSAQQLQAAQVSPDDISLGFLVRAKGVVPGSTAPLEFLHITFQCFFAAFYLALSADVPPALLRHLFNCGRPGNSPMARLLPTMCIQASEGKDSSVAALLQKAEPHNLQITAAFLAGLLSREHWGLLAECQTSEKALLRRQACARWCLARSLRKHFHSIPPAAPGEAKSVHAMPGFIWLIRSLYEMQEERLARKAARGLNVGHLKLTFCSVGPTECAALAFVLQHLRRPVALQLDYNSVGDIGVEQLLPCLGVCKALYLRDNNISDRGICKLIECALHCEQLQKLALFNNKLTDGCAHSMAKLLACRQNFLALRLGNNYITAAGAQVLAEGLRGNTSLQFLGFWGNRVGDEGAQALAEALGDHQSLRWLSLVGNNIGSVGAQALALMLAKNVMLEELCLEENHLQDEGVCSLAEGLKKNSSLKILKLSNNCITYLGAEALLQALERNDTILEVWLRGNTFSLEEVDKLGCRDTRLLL

[7] = test system: HEK293; assay: inhibition of NOD1-driven NF-kB reporter – cell-based, luminescence, uHTS, primary screen (AID 1578); type: functional; settings: Homo sapiens
[8] = test system: HEK293; assay: NOD2 signaling inhibitors in MDP-stimulated cells, cell-based, uHTS, luminescence (AID 2001); type: functional; settings: Homo sapiens
[9] = biological target: T3, Alkaline phosphatase, tissue-nonspecific isozyme (Homo sapiens, UniProt P05186); assay: potency against alkaline phosphatase TNAP – biochemical, luminescent, dose response, SAR follow-up (AID 1056)
T3 sequence (P05186 whole entry): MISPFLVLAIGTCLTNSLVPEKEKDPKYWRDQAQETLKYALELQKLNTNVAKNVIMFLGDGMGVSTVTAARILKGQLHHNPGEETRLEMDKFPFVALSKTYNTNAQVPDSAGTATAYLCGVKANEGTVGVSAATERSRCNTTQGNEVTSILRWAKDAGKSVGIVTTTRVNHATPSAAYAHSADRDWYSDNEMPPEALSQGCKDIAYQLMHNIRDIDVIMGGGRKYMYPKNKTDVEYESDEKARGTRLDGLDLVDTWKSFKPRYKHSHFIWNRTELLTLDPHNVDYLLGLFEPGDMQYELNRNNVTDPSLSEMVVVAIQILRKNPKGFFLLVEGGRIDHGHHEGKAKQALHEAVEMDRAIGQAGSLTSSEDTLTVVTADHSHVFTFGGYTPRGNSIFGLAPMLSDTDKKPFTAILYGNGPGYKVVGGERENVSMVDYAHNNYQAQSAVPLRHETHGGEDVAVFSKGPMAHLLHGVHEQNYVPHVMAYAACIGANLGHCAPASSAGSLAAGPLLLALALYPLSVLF

[10] = biological target: Alkaline phosphatase, placental type (Homo sapiens, UniProt P05187); assay: human placental alkaline phosphatase inhibition – biochemical, luminescence, confirmation (AID 1512); type: functional
Chain of Alkaline phosphatase, placental type (P05187 whole entry): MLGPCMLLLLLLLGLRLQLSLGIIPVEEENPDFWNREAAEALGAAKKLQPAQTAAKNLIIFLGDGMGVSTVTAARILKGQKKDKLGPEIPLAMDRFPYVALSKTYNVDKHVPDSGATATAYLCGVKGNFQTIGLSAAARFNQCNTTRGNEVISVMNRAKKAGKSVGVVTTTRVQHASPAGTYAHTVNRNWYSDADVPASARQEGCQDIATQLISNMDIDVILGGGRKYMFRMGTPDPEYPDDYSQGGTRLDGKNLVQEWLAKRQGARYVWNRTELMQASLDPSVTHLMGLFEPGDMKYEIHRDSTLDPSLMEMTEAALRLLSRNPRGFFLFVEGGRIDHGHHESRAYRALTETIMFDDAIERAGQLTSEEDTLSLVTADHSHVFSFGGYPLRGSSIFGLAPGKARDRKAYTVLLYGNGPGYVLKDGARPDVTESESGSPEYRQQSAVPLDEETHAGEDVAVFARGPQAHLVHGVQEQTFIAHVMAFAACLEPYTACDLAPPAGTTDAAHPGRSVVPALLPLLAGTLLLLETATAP

[11] = biological target: T4, Bcl-2-related protein A1 (Mus musculus, UniProt Q07440); type: functional;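 also: confirmatory dose–response counterscreen on Bfl-1, used to check hits from a UBC13 polyubiquitin inhibitor campaign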
T4 sequence (Q07440 whole entry): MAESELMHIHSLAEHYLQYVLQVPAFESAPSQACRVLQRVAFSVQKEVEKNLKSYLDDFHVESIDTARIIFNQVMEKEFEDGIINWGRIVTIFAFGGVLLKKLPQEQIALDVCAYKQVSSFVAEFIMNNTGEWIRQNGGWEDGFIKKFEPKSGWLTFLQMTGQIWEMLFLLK

[12] = biological target: T5, Ubiquitin-conjugating enzyme E2 N (Homo sapiens, UniProt P61088); type: functional;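 also: Dose-response confirmation in a TR-FRET assay detecting UBC13-driven polyubiquitin chain formation, inhibition measured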
T5 sequence (P61088 whole entry): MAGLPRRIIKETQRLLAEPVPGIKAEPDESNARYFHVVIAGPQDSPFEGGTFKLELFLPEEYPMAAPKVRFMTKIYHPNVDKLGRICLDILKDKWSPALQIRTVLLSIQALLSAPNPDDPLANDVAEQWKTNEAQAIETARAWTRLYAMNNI

[13] = biological target: NS3 (Hepatitis C virus, UniProt A3EZJ3); assay: PubChem AID 2173; parameters: species or system Hepacivirus hominis
Chain of NS3 (A3EZJ3 whole entry, the tested form may be a part): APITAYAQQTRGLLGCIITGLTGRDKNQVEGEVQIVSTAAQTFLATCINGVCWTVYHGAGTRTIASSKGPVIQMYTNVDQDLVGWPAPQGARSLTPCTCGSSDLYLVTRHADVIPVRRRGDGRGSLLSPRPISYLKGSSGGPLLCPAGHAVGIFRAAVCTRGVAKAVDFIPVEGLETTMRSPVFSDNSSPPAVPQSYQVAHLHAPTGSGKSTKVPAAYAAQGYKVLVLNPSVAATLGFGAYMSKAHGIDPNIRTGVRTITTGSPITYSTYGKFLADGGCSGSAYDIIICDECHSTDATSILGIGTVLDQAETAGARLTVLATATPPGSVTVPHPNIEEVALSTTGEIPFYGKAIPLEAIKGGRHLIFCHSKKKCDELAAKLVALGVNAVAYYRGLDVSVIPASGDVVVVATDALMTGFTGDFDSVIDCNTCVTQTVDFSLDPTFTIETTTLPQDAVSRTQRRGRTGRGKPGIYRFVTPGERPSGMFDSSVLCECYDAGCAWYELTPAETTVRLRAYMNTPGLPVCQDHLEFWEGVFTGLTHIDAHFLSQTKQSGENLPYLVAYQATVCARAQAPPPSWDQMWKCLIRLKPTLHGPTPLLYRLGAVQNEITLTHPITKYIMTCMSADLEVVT

[14] = biological target: T6, Carboxy-terminal domain RNA polymerase II polypeptide A small phosphatase 1 (Homo sapiens, UniProt Q9GZU7); assay: CTDSP1 inhibitors, concentration-response, biochemical, absorbance readout, ultra-high-throughput screen actives (AID 540297); type: functional
T6 sequence (Q9GZU7 whole entry): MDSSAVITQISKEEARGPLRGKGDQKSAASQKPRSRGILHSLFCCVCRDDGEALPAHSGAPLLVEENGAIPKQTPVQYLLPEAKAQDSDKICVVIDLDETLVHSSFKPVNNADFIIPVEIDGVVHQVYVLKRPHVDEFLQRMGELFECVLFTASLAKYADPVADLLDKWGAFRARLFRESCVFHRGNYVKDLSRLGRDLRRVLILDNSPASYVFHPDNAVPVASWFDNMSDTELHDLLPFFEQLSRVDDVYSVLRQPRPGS

[15] = biological target: T2, Estrogen receptor beta; assay: blockers of SRC-3 recruitment to ERβ – biochemical, ELISA, streptavidin-HRP readout, orthogonal assay, confirmation (AID 1060)

Which IC50 [1] does the source give for `COc1cc(NC(=O)CSc2nc3ccccc3c(=O)n2C)ccc1NC(=O)c1ccco1` here?
Its IC50 is 32.5 µM (not active).

Which IC50 [1] does the source give for `O=C(COc1ccccc1)Nc1ccc(Cl)c(-c2nc3ncccc3o2)c1` here?
Its IC50 is > 50 µM (not active).

`CSCCOC(=O)c1[nH]c2c(c1C)C(=O)CC(c1ccco1)C2` (stereo not drawn) was tested. Which IC50 [2] did it give?
Its IC50 is > 50 µM (not active).

What about the IC50 [1] of the same compound?
The IC50 was > 50 µM (not active).

Which results are given for `Cc1ccc(C)c(N2CCN(C(=O)C34CC5CC(C3)CC(n3nnc(C)n3)(C5)C4)CC2)c1`?
IC50 [3]: > 20 µM (inactive); IC50 [4]: 13.1 µM (active); IC50 [5]: 6.27 µM (active); EC50 [6]: 5.6 µM (active); EC50 [7]: 7.6 µM (active); IC50 [8]: 4.61 µM (active)

With `Cc1ccc(-c2nnc(SCC(=O)c3ccc(O)c(O)c3)n2C)cc1` as the compound, how does the IC50 [9] read?
The IC50 was > 100 µM (inactive).

What about the IC50 [10] of the same compound?
The IC50 was 11.7 µM (active).

How did the IC50 [11] turn out when `Cc1ccc(N(C(=O)c2snc(C(N)=O)c2N)C(C(=O)NCC2CCCO2)c2c[nH]c3ccccc23)cc1` (stereo not drawn) was run?
The IC50 was > 20 µM (inactive).

And the IC50 [12]?
The IC50 was 12.1 µM (active).

For `O=C(C1=C(O)C(=O)N(Cc2ccco2)C1c1cccc(Cl)c1)c1ccc2c(c1)OCCO2` (stereo not drawn), which IC50 [13] is on record?
Its IC50 is 4.61 µM (active).

Which IC50 [2] does the source give for `O=C(Nc1sc2c(c1C(=O)O)CCC2)c1ccccc1` here?
The IC50 was 6.88 µM (active).

And the IC50 [14]?
The IC50 was 12.1 µM (active).

And the IC50 [15]?
The IC50 was > 109 µM (not active).

Source: ChEMBL document CHEMBL1201862, “PubChem BioAssay data set” (2004)
